Reference: ChEMBL document CHEMBL1759909, “Discovery of 3-aryl-5-acylpiperazinyl-pyrazoles as antagonists to the NK3 receptor” (Bioorg Med Chem Lett, 2011)

Legend:
in vitro [1] = conditions: rat, liver microsomes
in vitro [2] = conditions: rat, plasma
in vivo [3] = conditions: Sprague-Dawley, rat
in vivo [4] = conditions: Sprague-Dawley, rat, iv, 1 mg/kg
Rattus norvegicus [5] = species on record: Rattus norvegicus; conditions: in vivo, po, 3 mg/kg
in vivo [6] = conditions: CD1, mouse, brain, ip, 5 mg/kg
Rattus norvegicus [7] = species on record: Rattus norvegicus; conditions: in vivo, po, 3 mg/kg; remark: listed apart in the source
in vivo [8] = conditions: CD1, mouse, brain/plasma, ip, 5 mg/kg
in vivo [9] = conditions: Sprague-Dawley, rat, plasma, po, 3 mg/kg
in vivo [10] = conditions: Sprague-Dawley, rat, po, 3 mg/kg
in vivo [11] = conditions: Sprague-Dawley, rat, iv, 1 mg/kg; remark: listed apart in the source

Structure (SMILES) | half-life (in vitro [1]) | remaining at 1 h (in vitro [2]) | half-life (in vivo [3]) | Vd (in vivo [4]) | concentration at 10 min (in vivo [6]) | Kp at 10 min (in vivo [8]) | AUC (in vivo [9]) | bioavailability (in vivo [10]) | clearance (in vivo [11]) | AUC (Rattus norvegicus [5]) | F (Rattus norvegicus [7])
COc1ccccc1N1CCN(C(=O)c2cc(-c3ccc(Cl)cc3)n(C)n2)CC1 | 40 min | 100% | 310 min | 3.3 L/kg | 1700 ng/g | 0.64 |  |  |  | 90501 ng·min/mL | 53%
CC(=O)N(C)C1(c2ccccc2)CCN(CCC[C@]2(c3ccc(Cl)c(Cl)c3)CCCN(C(=O)c3ccccc3)C2)CC1 [OSANETANT] | 23 min |  | 110 min | 8.7 L/kg | 30 ng/g | 0.03 | 114 ng·h/mL | 17% | 57 mL/min/kg |  | 
CC[C@H](NC(=O)c1c(O)c(-c2ccccc2)nc2ccccc12)c1ccccc1 [TALNETANT] | 60 min | 100% | 450 min | 1.4 L/kg | 340 ng/g | 0.07 | 15600 ng·h/mL | 53% | 1.9 mL/min/kg |  | 

More lines, main results first:

half-life (in vitro [1]) | remaining at 1 h (in vitro [2]) | half-life (in vivo [3]) | Vd (in vivo [4]) | concentration at 10 min (in vivo [6]) | Kp at 10 min (in vivo [8]) | AUC (in vivo [9]) | bioavailability (in vivo [10]) | clearance (in vivo [11]) | Structure (SMILES) | AUC (Rattus norvegicus [5]) | F (Rattus norvegicus [7])
2 min | 100% |  |  |  |  |  |  |  | COc1ccccc1N1CCN(C(=O)c2cc(-c3ccc(Cl)cc3)n[nH]2)[C@@H](C)C1 |  | 
45 min | 5% |  |  |  |  |  |  |  | COc1ccccc1N1CCN(C(=O)c2cc(-c3ccc(Cl)cc3Cl)n[nH]2)CC1 |  | 
